ChEMBL document CHEMBL4145553, “Design, synthesis, and biological evaluation of novel amide and hydrazide based thioether analogs targeting Histone deacteylase (HDAC) enzymes” (Eur J Med Chem, 2018)
Activity calls are given as the source filed them. The rule behind the calls is not given here.

Legend:
786-0 [1] = test: Growth inhibition of human 786-0 cells assessed as cell growth at 10^-7 M incubated for 48 hrs by sulforhodamine B assay relative to control; format: functional; details: 786-0, 48 h, read-out: Activity
SF-539 = test: Growth inhibition of human SF539 cells assessed as cell growth at 10^-6 M incubated for 48 hrs by sulforhodamine B assay relative to control; format: functional; details: SF-539, 48 h, read-out: Activity
SW-620 = test: Growth inhibition of human SW620 cells assessed as cell growth at 10^-8 M incubated for 48 hrs by sulforhodamine B assay relative to control; format: functional; details: SW-620, 48 h, read-out: Activity
K562 = test: Growth inhibition of human K562 cells assessed as cell growth at 10^-5 M incubated for 48 hrs by sulforhodamine B assay relative to control; format: functional; details: K562, 48 h, read-out: Activity
UACC-257 = test: Growth inhibition of human UACC257 cells assessed as cell growth at 10^-8 M incubated for 48 hrs by sulforhodamine B assay relative to control; format: functional; details: UACC-257, 48 h, read-out: Activity
CCRF-CEM = test: Growth inhibition of human CCRF-CEM cells assessed as cell growth at 10^-6 M incubated for 48 hrs by sulforhodamine B assay relative to control; format: functional; details: read-out: Activity
SK-MEL-5 = test: Growth inhibition of human SK-MEL-5 cells incubated for 48 hrs by sulforhodamine B assay; format: functional; details: SK-MEL-5, 48 h
LOX IMVI = test: Growth inhibition of human LOXIMVI cells incubated for 48 hrs by sulforhodamine B assay; format: functional
SN12C = test: Growth inhibition of human SN12C cells incubated for 48 hrs by sulforhodamine B assay; format: functional
A549 = test: Growth inhibition of human A549/ATCC cells incubated for 48 hrs by sulforhodamine B assay; format: functional; details: A549, 48 h
MDA-MB-435 = test: Induction of apoptosis in human MDA-MB-435 cells assessed as increase in gammaH2ax expression by qRT-PCR method; format: functional, cell-based
SNB-19 = test: Growth inhibition of human SNB19 cells assessed as cell growth at 10^-6 M incubated for 48 hrs by sulforhodamine B assay relative to control; format: functional; details: SNB-19, 48 h, read-out: Activity
SF-295 [2] = test: Growth inhibition of human SF295 cells assessed as cell growth at 10^-4 M incubated for 48 hrs by sulforhodamine B assay relative to control; format: functional; details: SF-295, 48 h, read-out: Activity
HCT-116 [3] = test: Growth inhibition of human HCT116 cells assessed as cell growth at 10^-8 M incubated for 48 hrs by sulforhodamine B assay relative to control; format: functional; details: HCT-116, 48 h, read-out: Activity
SK-OV-3 = test: Growth inhibition of human SKOV3 cells assessed as cell growth at 10^-5 M incubated for 48 hrs by sulforhodamine B assay relative to control; format: functional; details: SK-OV-3, 48 h, read-out: Activity
ACHN = test: Growth inhibition of human ACHN cells assessed as cell growth at 10^-8 M incubated for 48 hrs by sulforhodamine B assay relative to control; format: functional; details: read-out: Activity
OVCAR-5 = test: Growth inhibition of human OVCAR5 cells assessed as cell growth at 10^-7 M incubated for 48 hrs by sulforhodamine B assay relative to control; format: functional; details: OVCAR-5, 48 h, read-out: Activity
NCI-H322M [4] = test: Growth inhibition of human NCI-H322M cells assessed as cell growth at 10^-7 M incubated for 48 hrs by sulforhodamine B assay relative to control; format: functional; details: read-out: Activity
HCT-116 [5] = test: Growth inhibition of human HCT116 cells assessed as cell growth at 10^-4 M incubated for 48 hrs by sulforhodamine B assay relative to control; format: functional; details: HCT-116, 48 h, read-out: Activity
786-0 [6] = test: Growth inhibition of human 786-0 cells assessed as cell growth at 10^-8 M incubated for 48 hrs by sulforhodamine B assay relative to control; format: functional; details: 786-0, 48 h, read-out: Activity
NCI-H226 = test: Growth inhibition of human NCI-H226 cells assessed as cell growth at 10^-4 M incubated for 48 hrs by sulforhodamine B assay relative to control; format: functional; details: NCI-H226, 48 h, read-out: Activity
KM12 [7] = test: Growth inhibition of human KM12 cells assessed as cell growth at 10^-6 M incubated for 48 hrs by sulforhodamine B assay relative to control; format: functional; details: KM12, 48 h, read-out: Activity
RPMI-8226 = test: Growth inhibition of human RPMI8226 cells assessed as cell growth at 10^-4 M incubated for 48 hrs by sulforhodamine B assay relative to control; format: functional; details: RPMI-8226, 48 h, read-out: Activity
U-251 = test: Growth inhibition of human U251 cells assessed as cell growth at 10^-7 M incubated for 48 hrs by sulforhodamine B assay relative to control; format: functional; details: U-251, 48 h, read-out: Activity
NCI/ADR-RES [8] = test: Growth inhibition of human NCI/ADR-RES cells incubated for 48 hrs by sulforhodamine B assay; format: functional
SF-295 [9] = test: Growth inhibition of human SF295 cells assessed as cell growth at 10^-5 M incubated for 48 hrs by sulforhodamine B assay relative to control; format: functional; details: SF-295, 48 h, read-out: Activity
KM12 [10] = test: Growth inhibition of human KM12 cells assessed as cell growth at 10^-5 M incubated for 48 hrs by sulforhodamine B assay relative to control; format: functional; details: KM12, 48 h, read-out: Activity
NCI/ADR-RES [11] = test: Growth inhibition of human NCI/ADR-RES cells assessed as cell growth at 10^-8 M incubated for 48 hrs by sulforhodamine B assay relative to control; format: functional; details: read-out: Activity
MOLT-4 = test: Growth inhibition of human MOLT4 cells assessed as cell growth at 10^-6 M incubated for 48 hrs by sulforhodamine B assay relative to control; format: functional; details: MOLT-4, 48 h, read-out: Activity
SF-268 = test: Growth inhibition of human SF268 cells assessed as cell growth at 10^-7 M incubated for 48 hrs by sulforhodamine B assay relative to control; format: functional; details: SF-268, 48 h, read-out: Activity
NCI-H322M [12] = test: Growth inhibition of human NCI-H322M cells assessed as cell growth at 10^-6 M incubated for 48 hrs by sulforhodamine B assay relative to control; format: functional; details: read-out: Activity
[13] = read-out: LC50 (the source's name)
[14] = read-out: pLC50 (the source's name) (converted)

## CCS/C(Nc1ccccc1)=C(\C#N)C(=O)N/N=C\c1ccc(Cl)cc1Cl
786-0 [1]
  growth at 0.1 µM: 88%
SF-539
  growth at 1 µM: 90%
SW-620
  growth at 0.01 µM: 97%
K562
  growth at 10 µM: 10%
UACC-257
  growth at 0.01 µM: 94%
CCRF-CEM
  growth at 1 µM: 82%
SK-MEL-5; read-out: GI50
  GI50: 2.28 µM
SK-MEL-5; [13]
  CC50: > 100 µM
SK-MEL-5; read-out: TGI
  TGI: 8.54 µM
SK-MEL-5; read-out: pGI50 (converted)
  GI50: 2.29 µM
SK-MEL-5; [14]
  CC50: > 100 µM
SK-MEL-5; read-out: pTGI (converted)
  TGI: 8.51 µM
LOX IMVI; read-out: GI50
  GI50: 5.88 µM
LOX IMVI; [13]
  CC50: > 100 µM
LOX IMVI; read-out: TGI
  TGI: > 100 µM
LOX IMVI; read-out: pGI50 (converted)
  GI50: 5.89 µM
LOX IMVI; [14]
  CC50: > 100 µM
LOX IMVI; read-out: pTGI
  TGI: > 100 µM
SN12C; read-out: GI50
  GI50: 6.92 µM
SN12C; [13]
  CC50: > 100 µM
SN12C; read-out: TGI
  TGI: > 100 µM
SN12C; read-out: pGI50 (converted)
  GI50: 6.92 µM
SN12C; [14]
  CC50: > 100 µM
SN12C; read-out: pTGI
  TGI: > 100 µM
A549; read-out: GI50
  GI50: 4.63 µM
A549; [13]
  CC50: > 100 µM
A549; read-out: TGI
  TGI: > 100 µM
A549; read-out: pGI50 (converted)
  GI50: 4.68 µM
A549; [14]
  CC50: > 100 µM
A549; read-out: pTGI
  TGI: > 100 µM
MDA-MB-435
  Activity: Active
SNB-19
  growth at 1 µM: 86%
SF-295 [2]
  growth at 100 µM: 3%
HCT-116 [3]
  growth at 0.01 µM: 96%
SK-OV-3
  growth at 10 µM: 19%
ACHN
  growth at 0.01 µM: 102%
OVCAR-5
  growth at 0.1 µM: 96%
NCI-H322M [4]
  growth at 0.1 µM: 91%
HCT-116 [5]
  growth at 100 µM: 3%
786-0 [6]
  growth at 0.01 µM: 95%
NCI-H226
  growth at 100 µM: 11%
KM12 [7]
  growth at 1 µM: 90%
RPMI-8226
  growth at 100 µM: 6%
U-251
  growth at 0.1 µM: 98%
NCI/ADR-RES [8]; read-out: GI50
  GI50: 3.16 µM
NCI/ADR-RES [8]; [13]
  CC50: > 100 µM
NCI/ADR-RES [8]; read-out: TGI
  TGI: > 100 µM
NCI/ADR-RES [8]; read-out: pGI50 (converted)
  GI50: 3.16 µM
NCI/ADR-RES [8]; [14]
  CC50: > 100 µM
NCI/ADR-RES [8]; read-out: pTGI
  TGI: > 100 µM
SF-295 [9]
  growth at 10 µM: 15%
KM12 [10]
  growth at 10 µM: 24%
NCI/ADR-RES [11]
  growth at 0.01 µM: 98%
MOLT-4
  growth at 1 µM: 84%
SF-268
  growth at 0.1 µM: 94%
NCI-H322M [12]
  growth at 1 µM: 89%

## CCS/C(Nc1ccccc1)=C(\C#N)C(=O)Nc1ccc(OC)cc1
786-0 [1]
  growth at 0.1 µM: 86%
SF-539
  growth at 1 µM: 87%
SW-620
  growth at 0.01 µM: 97%
K562
  growth at 10 µM: 12%
UACC-257
  growth at 0.01 µM: 101%
CCRF-CEM
  growth at 1 µM: 64%
SK-MEL-5; read-out: GI50
  GI50: 2.2 µM
SK-MEL-5; [13]
  CC50: 68.2 µM
SK-MEL-5; read-out: TGI
  TGI: 8.19 µM
SK-MEL-5; read-out: pGI50 (converted)
  GI50: 2.19 µM
SK-MEL-5; [14]
  CC50: 67.6 µM
SK-MEL-5; read-out: pTGI (converted)
  TGI: 8.13 µM
LOX IMVI; read-out: GI50
  GI50: 6.16 µM
LOX IMVI; [13]
  CC50: > 100 µM
LOX IMVI; read-out: TGI
  TGI: > 100 µM
LOX IMVI; read-out: pGI50 (converted)
  GI50: 6.17 µM
LOX IMVI; [14]
  CC50: > 100 µM
LOX IMVI; read-out: pTGI
  TGI: > 100 µM
SN12C; read-out: GI50
  GI50: 5.91 µM
SN12C; [13]
  CC50: > 100 µM
SN12C; read-out: TGI
  TGI: > 100 µM
SN12C; read-out: pGI50 (converted)
  GI50: 5.89 µM
SN12C; [14]
  CC50: > 100 µM
SN12C; read-out: pTGI
  TGI: > 100 µM
A549; read-out: GI50
  GI50: 5.91 µM
A549; [13]
  CC50: > 100 µM
A549; read-out: TGI
  TGI: > 100 µM
A549; read-out: pGI50 (converted)
  GI50: 5.89 µM
A549; [14]
  CC50: > 100 µM
A549; read-out: pTGI
  TGI: > 100 µM
MDA-MB-435
  Activity: Active
SNB-19
  growth at 1 µM: 84%
SF-295 [2]
  growth at 100 µM: 6%
HCT-116 [3]
  growth at 0.01 µM: 100%
SK-OV-3
  growth at 10 µM: 10%
ACHN
  growth at 0.01 µM: 101%
OVCAR-5
  growth at 0.1 µM: 95%
NCI-H322M [4]
  growth at 0.1 µM: 92%
HCT-116 [5]
  growth at 100 µM: -11%
786-0 [6]
  growth at 0.01 µM: 97%
NCI-H226
  growth at 100 µM: -15%
KM12 [7]
  growth at 1 µM: 68%
RPMI-8226
  growth at 100 µM: 5%
U-251
  growth at 0.1 µM: 98%
NCI/ADR-RES [8]; read-out: GI50
  GI50: 2.62 µM
NCI/ADR-RES [8]; [13]
  CC50: > 100 µM
NCI/ADR-RES [8]; read-out: TGI
  TGI: > 100 µM
NCI/ADR-RES [8]; read-out: pGI50 (converted)
  GI50: 2.63 µM
NCI/ADR-RES [8]; [14]
  CC50: > 100 µM
NCI/ADR-RES [8]; read-out: pTGI
  TGI: > 100 µM
SF-295 [9]
  growth at 10 µM: 16%
KM12 [10]
  growth at 10 µM: 28%
NCI/ADR-RES [11]
  growth at 0.01 µM: 100%
MOLT-4
  growth at 1 µM: 71%
SF-268
  growth at 0.1 µM: 97%
NCI-H322M [12]
  growth at 1 µM: 89%
